Tests used:
[1] = system: microglia cell line (6-3 cells); experiment: Western blot of M1 markers (iNOS, IL-1β) and M2 markers (Arg1, CD206) in microglia; format: cell-based
Protocol: To a microglia cell line (6-3 cells), LPS (100 ng/ml) and an anti-inflammatory cytokine IL-4 (20 ng/ml) were added. Methylcobalamin solutions each having a different concentration ranging from 1 nM to 1 mM were added to the mixture, and proteins were recovered from each mixture at 1 and 3 days after the addition. Electrophoresis and transfer to a membrane were performed, the membrane was blocked, and the cells were allowed to react with each of primary antibodies against M1 markers (iNOS and IL-1β) and M2 markers (Arg1 and CD206) at 4° C. overnight. Cells were allowed to react with a secondary antibody at room temperature for 1 hour, and bands were detected using a detector.
The primary antibodies used were an anti-iNOS antibody, an anti-IL-1β antibody, an anti-Arg1 antibody, and an anti-CD206 (a mannose receptor) antibody. The secondary antibody used was an Anti-Rabbit IgG, HRP-Linked Whole Ab Sheep.

[2] = system: rat spinal cord injury model; experiment: BBB score in rat spinal cord injury model (lateral hemisection model); format: in vivo; details: 1 mg/kg/day osmotic minipump; for BBB score: left lower extremity
Protocol: Six-week-old female Wistar rats were used. The rats were purchased from Charles River Laboratories Japan, Inc. (Yokohama, Japan). Anesthesia was performed as follows. A 1:10 dilution of a mixture of three anesthetic agents in physiological saline was administered by intraperitoneal injection. One dose consisted of 0.2 mg/kg of midazolam, 0.015 mg/kg of medetomidine, and 0.25 mg/kg of butorphanol. The rat was placed in a prone position on an operating table, and a dorsal midline incision was made. The T10 vertebral arch was removed to expose the posterior face of the spinal cord, and the left spinal cord was hemisected using a sharp-pointed surgical scalpel (spitz mess). The skin was sutured using a 4-0 nylon thread and the surgery was completed. A comparison was made among three groups: a methylcobalamin treatment group, an untreated group, and a sham group. Immediately after the surgical operation, an osmotic minipump filled with methylcobalamin (1 mg/kg/day) or physiological saline was placed for the methylcobalamin treatment group and the untreated group, respectively, and left in the left dorsal subcutaneous space. The sham group underwent only resection of the Th10 vertebral arch.
Each rat was separately accommodated in a cage, allowed to walk freely, and observed for 5 minutes. According to a conventional method, left-lower-extremity function was evaluated using scores of 0 (no locomotion) to 21 (normal locomotion). The evaluations were performed before surgery, and at 1, 7, 14, 21, and 28 days after the surgery.

[3] = system: photocoagulation-induced cerebral infarction model C57BL/6J mice; experiment: Rotarod test in photocoagulation-induced cerebral infarction model; format: in vivo, mouse
Protocol: Eight to 10-week-old male C57BL/6J mice (about 24 g) were used. A photocoagulation-induced cerebral infarction model for laser light irradiation after rose bengal administration was constructed. In this model, the skull of each mouse was drilled to open a hole having a center at 2 mm from the anterior fontanel in the outward direction. At 5 minutes after a photosensitive dye rose bengal was administered, the right motor cortex as a center was irradiated with laser light to create cerebral infarction in the right lateral motor cortex. An osmotic pump (ALZET osmotic pumps, for 2-week operation) was embedded immediately after the creation of the cerebral infarction. The mice were divided into a methylcobalamin treatment group (N=3) and an untreated group (N=4), and rotarod tests (accelerating velocity method) were carried out at 2, 4, 7, 9, 11, and 14 days after the surgery creating cerebral infarction. The time until a mouse fell from a rotarod was measured, and a ratio to a maximum of 300 seconds as baseline was calculated.

[4] = system: tMCAO model C57BL/6J mice; experiment: Brain ischemic lesion volume by TTC staining in transient middle cerebral artery occlusion (tMCAO) model; format: in vivo, mouse; details: 2 days after tMCAO surgery
Text: Eight- to 9-week-old male C57BL/6J mice (about 24 g) were used. A probe for a laser Doppler blood flow meter was placed on the right skull such that blood flow in the middle cerebral artery could be monitored. The right cervical region was cut and opened, and the external carotid artery was ligated. Then, the common carotid artery was cut, and a nylon thread was inserted into the common carotid artery, and the tip was advanced while the blood flow was checked using a blood flow monitor. When the tip reached the bifurcation of the middle cerebral artery and a decrease in blood flow was observed, this state was held for 1 hour at a rectal temperature of 37° C. Then, the nylon thread was removed, and the common carotid artery was ligated. In order to administer methylcobalamin continuously, an osmotic minipump was placed and left in the dorsal subcutaneous space. […]
At 2 days after the surgery, the mouse (Example 4-1) was sacrificed, and the cerebrum was excised. […] Images were obtained by a stereoscopic microscope, the ischemic lesion area in each slice was calculated, and all ischemic lesion areas of the cerebrum slices were summed up to calculate an ischemic lesion volume. The ischemic lesion area in each slice was calculated by the following formula: Area of unaffected hemisphere—area of affected side intact portion.

C/C1=C2/[N-][C@H]([C@H](CC(N)=O)[C@@]2(C)CCC(=O)NC[C@@H](C)OP(=O)([O-])O[C@H]2[C@@H](O)[C@@H](n3cnc4cc(C)c(C)cc43)O[C@@H]2CO)[C@]2(C)N=C(/C(C)=C3N=C(/C=C4N=C1[C@@H](CCC(N)=O)C\4(C)C)[C@@H](CCC(N)=O)[C@]\3(C)CC(N)=O)[C@@H](CCC(N)=O)[C@]2(C)CC(N)=O.[CH3-].[Co+3] [MeCbl, methylcobalamin]
amount of Arg1 protein as compared with IL-4 alone ([1]; IL-4 + 1 nM to 10 μM methylcobalamin): significantly increased | amount of CD206 as compared with IL-4 alone ([1]; IL-4 + 10 nM to 100 nM methylcobalamin): significantly increased | Arg1 (amount of protein, IL-4 alone = 1.00) ([1]; MeCbl 1 nM): 1.78 | CD206 (amount of protein, IL-4 alone = 1.00) ([1]; MeCbl 1 nM): 1.11 | Arg1 (amount of protein, IL-4 alone = 1.00) ([1]; MeCbl 10 nM): 2.03 | CD206 (amount of protein, IL-4 alone = 1.00) ([1]; MeCbl 10 nM): 1.42 | Arg1 (amount of protein, IL-4 alone = 1.00) ([1]; MeCbl 100 nM): 2.72 | CD206 (amount of protein, IL-4 alone = 1.00) ([1]; MeCbl 100 nM): 1.39 | Arg1 (amount of protein, IL-4 alone = 1.00) ([1]; MeCbl 1 μM): 2.20 | CD206 (amount of protein, IL-4 alone = 1.00) ([1]; MeCbl 1 μM): 1.17 | Arg1 (amount of protein, IL-4 alone = 1.00) ([1]; MeCbl 10 μM): 2.08 | CD206 (amount of protein, IL-4 alone = 1.00) ([1]; MeCbl 10 μM): 1.17 | Arg1 (amount of protein, IL-4 alone = 1.00) ([1]; MeCbl 100 μM): 1.37 | CD206 (amount of protein, IL-4 alone = 1.00) ([1]; MeCbl 100 μM): 1.24 | Arg1 (amount of protein, IL-4 alone = 1.00) ([1]; MeCbl 1 mM): 0.59 | CD206 (amount of protein, IL-4 alone = 1.00) ([1]; MeCbl 1 mM): 1.11 | amount of iNOS protein as compared with LPS alone ([1]; LPS + at least 10 nM methylcobalamin): significantly decreased | amount of IL-1β protein as compared with LPS alone ([1]; LPS + at least 1 μM methylcobalamin): significantly decreased | IL-1β (amount of protein, LPS alone = 1.00) ([1]; MeCbl 1 nM): 1.02 | iNOS (amount of protein, LPS alone = 1.00) ([1]; MeCbl 1 nM): 0.87 | IL-1β (amount of protein, LPS alone = 1.00) ([1]; MeCbl 10 nM): 0.95 | iNOS (amount of protein, LPS alone = 1.00) ([1]; MeCbl 10 nM): 0.74 | IL-1β (amount of protein, LPS alone = 1.00) ([1]; MeCbl 100 nM): 0.83 | iNOS (amount of protein, LPS alone = 1.00) ([1]; MeCbl 100 nM): 0.76 | IL-1β (amount of protein, LPS alone = 1.00) ([1]; MeCbl 1 μM): 0.72 | iNOS (amount of protein, LPS alone = 1.00) ([1]; MeCbl 1 μM): 0.61 | IL-1β (amount of protein, LPS alone = 1.00) ([1]; MeCbl 10 μM): 0.58 | iNOS (amount of protein, LPS alone = 1.00) ([1]; MeCbl 10 μM): 0.46 | IL-1β (amount of protein, LPS alone = 1.00) ([1]; MeCbl 100 μM): 0.53 | iNOS (amount of protein, LPS alone = 1.00) ([1]; MeCbl 100 μM): 0.36 | IL-1β (amount of protein, LPS alone = 1.00) ([1]; MeCbl 1 mM): 0.32 | iNOS (amount of protein, LPS alone = 1.00) ([1]; MeCbl 1 mM): 0.05 | BBB score ([2]; 0 days after surgery (before surgery)): 21 | left-lower-extremity motor function (BBB score) as compared to the untreated group ([2]; 14, 21, and 28 days after the surgery): significantly improved | BBB score ([2]; 1 day after surgery): 0.17 | BBB score ([2]; 7 days after surgery): 8.33 | BBB score ([2]; 14 days after surgery): 15.50 | BBB score ([2]; 21 days after surgery): 16.33 | BBB score ([2]; 28 days after surgery): 17 | rotarod test: time until fall, ratio to a maximum of 300 seconds as baseline ([3]; 0 day after PIT operation (baseline)): 0.998 | rotarod test: time until fall, ratio to a maximum of 300 seconds as baseline ([3]; 2 days after PIT operation, osmotic pump): 0.470 | rotarod test: time until fall, ratio to a maximum of 300 seconds as baseline ([3]; 2 days after PIT operation, osmotic pump, listed as methylcobalamin): significantly improved | rotarod test: time until fall, ratio to a maximum of 300 seconds as baseline ([3]; 4 days after PIT operation, osmotic pump): 0.573 | rotarod test: time until fall, ratio to a maximum of 300 seconds as baseline ([3]; 4 days after PIT operation, osmotic pump, listed as methylcobalamin): significantly improved | rotarod test: time until fall, ratio to a maximum of 300 seconds as baseline ([3]; 7 days after PIT operation, osmotic pump): 0.370 | rotarod test: time until fall, ratio to a maximum of 300 seconds as baseline ([3]; 9 days after PIT operation, osmotic pump): 0.437 | rotarod test: time until fall, ratio to a maximum of 300 seconds as baseline ([3]; 9 days after PIT operation, osmotic pump, listed as methylcobalamin): significantly improved | rotarod test: time until fall, ratio to a maximum of 300 seconds as baseline ([3]; 11 days after PIT operation, osmotic pump): 0.521 | rotarod test: time until fall, ratio to a maximum of 300 seconds as baseline ([3]; 14 days after PIT operation, osmotic pump): 0.510 | ischemic lesion volume ([4]; 1 mg/kg/day continuous, osmotic minipump): 28.8 | reduction of ischemic lesion volume as compared with the control group ([4]; 1 mg/kg/day): about ½
